Eleven molecules from patent US7759072B2, “Immunoassay method and reagent therefor” (Sekisui Medical Co., Ltd., priority 2005, dated 2010) can be followed below.

T1 sequence (P00371 whole entry): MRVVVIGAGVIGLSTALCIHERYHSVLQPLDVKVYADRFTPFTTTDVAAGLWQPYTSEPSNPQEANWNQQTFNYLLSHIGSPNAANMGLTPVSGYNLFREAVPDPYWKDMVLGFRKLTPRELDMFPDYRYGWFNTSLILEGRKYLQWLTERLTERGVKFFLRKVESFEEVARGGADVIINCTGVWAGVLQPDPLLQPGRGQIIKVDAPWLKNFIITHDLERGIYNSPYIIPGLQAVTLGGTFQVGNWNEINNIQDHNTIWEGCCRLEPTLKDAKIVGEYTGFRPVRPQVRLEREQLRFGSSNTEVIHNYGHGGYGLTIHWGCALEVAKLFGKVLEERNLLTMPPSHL

The assay concerns the target T1, apo-D-amino acid oxidase (Sus scrofa, UniProt P00371).
T1 construct: Apo-D-amino acid oxidase extracted and purified from the porcine kidneys is known and can be suitably used; purchased Calzyme Inc. 176A0025
As to the kind of experiment: Comparison of reactivity between various D-amino acids as substrates of FAD-reactivated apo-D-amino acid oxidase (peroxidase/DA-64 colorimetric, Hitachi 7170). The assay is classed as biochemical, porcine. To be noted: 5 mM D-amino acid in reagent 1, 50 mM Tris-HCl pH 8.3; 10 U/ml apo-D-amino acid oxidase, FAD sample; 700 nm; D-valine = 100. As to the method:
Reagent 1 containing 50 mM Tris-HCl (pH 8.3), 5 mM DA-64 (Wako Pure Chemical Industries), and 5 mM D-amino acid, reagent 2 containing 10 U/ml apo-D-amino acid oxidase (Calzyme Inc., Catalog No. 176A0025) and 5 U/ml peroxidase, and aqueous FAD solution as a sample were applied to a Hitachi 7170 automated analyzer at a setting of two-point end-mode and using a parameters of 7 μl for a sample, 180 μl for R1, 90 μl for R2, and 700 nm for a wavelength for determination.
As in 1), the activity of the reconstituted apoenzyme was confirmed. Assays only varying types of the D-amino acids were then performed. As D-amino acids, D-forms of Ala, Met, Val, Ile, Phe, Pro, Ser, Thr, Asn, Leu, Tyr, Trp, Asp, Glu, His, and Arg were each used. The percent reactivities of the above-mentioned various D-amino acids were calculated to the value of D-valine which was defined as 100.
On to `NC(N)=NCCCC(N)C(=O)O` [D-Arg], for which the “percent reactivity of D-amino acid (relative to D-valine defined as 100)” value came out at 8%. The figure for `N[C@H](Cc1ccccc1)C(=O)O` [D-Phe] is 170%; for `C[C@@H](N)C(=O)O` [D-Ala] it is 136%; for `CC(C)[C@@H](N)C(=O)O` [D-Val, D-valine] it is 100%. The figure for `CC(C)C[C@@H](N)C(=O)O` [D-Leu] is 97%; for `N[C@H](Cc1ccc(O)cc1)C(=O)O` [D-Tyr, D-tyrosine] it is 159%. Take `O=C(O)[C@H]1CCCN1` [D-Pro, D-proline]: the “percent reactivity of D-amino acid (relative to D-valine defined as 100)” value worked out at 374%. `CC[C@@H](C)[C@@H](N)C(=O)O` [D-Ile]: the “percent reactivity of D-amino acid (relative to D-valine defined as 100)” value stood at 178%. `N[C@H](Cc1c[nH]c2ccccc12)C(=O)O` [D-Trp]: the “percent reactivity of D-amino acid (relative to D-valine defined as 100)” value was determined as 14%. `CSCC[C@@H](N)C(=O)O` [D-Met]: the “percent reactivity of D-amino acid (relative to D-valine defined as 100)” value was determined as 322%. With `N[C@H](CO)C(=O)O` [D-Ser] the figure was 117%.
